Source: patent US8778412B2, “Methods for increasing the stabilization of hypoxia inducible factor-1 alpha” (Aerpio Therapeutics Inc., priority 2009, dated 2014)

How the values were obtained:
[1] = molecular target: HIFPH2 (EGLN1) (Homo sapiens (Human), UniProt Q9GZT9); assay: EGLN-1 Activity Assay (MALDI-TOF MS); format: biochemical; settings: recombinant human EGLN-1-179/426, HIF-1α peptide 556-574
Procedure: The enzyme, quantity predetermined to hydroxylate 20% of substrate in 20 minutes, is added to start the reaction. Where inhibitors are used, compounds are prepared in dimethyl sulfoxide at 10-fold final assay concentration. After 20 minutes at room temperature, the reaction is stopped by transferring 10 μL of reaction mixture to 50 μL of a mass spectrometry matrix solution (α-cyano-4-hydroxycinnamic acid, 5 mg/mL in 50% acetonitrile/0.1% TFA, 5 mM NH4PO4). Two microliters of the mixture is spotted onto a MALDI-TOF MS target plate for analysis with an Applied Biosystems (Foster City, Calif.) 4700 Proteomics Analyzer MALDI-TOF MS equipped with a Nd:YAG laser (355 nm, 3 ns pulse width, 200 Hz repetition rate). Hydroxylated peptide product is identified from substrate by the gain of 16 Da. Data defined as percent conversion of substrate to product is analyzed in GraphPad Prism 4 to calculate IC50 values.

[2] = tested on: phosphoglycerate kinase (PGK) expression; assay: PGK expression in murine embryonic fibroblasts; format: cell-based; settings: 1 μM, 10 μM, vs wild type control (FIG. 12)
Procedure: FIG. 11 depicts the up regulation of phosphoglycerate kinase (PGK) expression in wild type murine embryonic fibroblasts as a result of treatment with a compound disclosed in Table VIII at dosages of 1 μM (E), 10 μM (F), and 50 μM (G) vs. wild type control (H) and the lack of up regulation of PGK expression in HIF-1 knock out cells as a result of treatment with a compound disclosed in Table VIII at dosages of 1 μM (A), 10 μM (B), and 50 μM (C) and HIF-1 knock out control (D). Both cell types were treated for 7 hours.

[3] = Solubility of pharmaceutically acceptable salts in water; format: physicochemical; settings: distilled deionized water, sonicated 20 min, under 25° C., HPLC
Procedure: The formulator can determine the solubility of the pharmaceutically acceptable salts of the disclosed inhibitors by any method desirable. The following is a non-limiting example of a procedure for evaluating the solubility of a salt of a disclosed inhibitor. A suspension of tert-butyl-{[1-(4-chlorobenzyl)-3-hydroxy-2-oxo-1,2-dihydropyridin-4-yl]methyl}-piperazine-1-carboxylate methanesulfonate (26.6 mg) in distilled deionized water (3.0 mL) is sonicated for 20 min with water bath temperature under 25° C. The suspension is filtered to remove any insoluble salt. The clear filtrate solution (200 μL) is diluted with distilled deionized water (800 μL) and subjected to HPLC analysis. The following are results for the pharmaceutically acceptable salts outlined in Table VII above.

Sequence of HIFPH2 (EGLN1) (Q9GZT9 179-426): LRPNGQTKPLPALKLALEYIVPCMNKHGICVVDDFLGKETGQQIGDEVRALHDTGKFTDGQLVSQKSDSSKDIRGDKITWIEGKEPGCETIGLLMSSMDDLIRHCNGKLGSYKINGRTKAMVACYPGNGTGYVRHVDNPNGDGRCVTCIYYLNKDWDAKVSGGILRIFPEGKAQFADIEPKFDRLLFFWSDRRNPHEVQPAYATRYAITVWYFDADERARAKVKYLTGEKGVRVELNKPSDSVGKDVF

SMILES | IC50 [1] [µM] | Solubility [3] [µg/mL] | other results
O=c1c(O)c(CN2CCN(Cc3ccccc3)CC2)ccn1Cc1ccccc1 [Compound B9, 1-benzyl-3-hydroxy-4-[(4-benzylpiperazin-1-yl)methyl]pyridin-2(1H)-one] | 17 | – | –
O=c1c(O)cccn1Cc1cccc(Cl)c1 [Compound F2, 1-(3-chlorobenzyl)-3-hydroxypyridin-2(1H)-one] | – | – | PGK expression in wild type murine embryonic fibroblasts [2]: up regulation
CC(C)(C)OC(=O)N1CCN(Cc2ccn(Cc3ccc(Cl)cc3)c(=O)c2O)CC1 [Compound A41] | – | ~1 | –
CC(C)(C)OC(=O)N1CCN(Cc2ccn(Cc3ccc(Cl)cc3)c(=O)c2O)CC1.CS(=O)(=O)O [methanesulfonate, tert-butyl-{[1-(4-chlorobenzyl)-3-hydroxy-2-oxo-1,2-dihydropyridin-4-yl]methyl}-piperazine-1-carboxylate methanesulfonate] | – | 16600 | –
O=c1c(O)c(CNCc2ccccc2)ccn1Cc1ccc(Cl)cc1 [Compound C1, 1-(4-chlorobenzyl)-3-hydroxy-4-[(4-benzylamino)methyl]pyridin-2(1H)-one] | 12 | – | –
